For this assay, the target named is T1, human CB2R (Homo sapiens, UniProt P34972).
T1 construct: host or cells: CHO cells
The assay can be described thus: CB2R mediated modulation of cAMP synthesis. It is filed as cell-based. Conditions: for agonistic activity: found through the use of the above described assays. Summed up:
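CHO cells expressing human CB2R were treated with compound for 30 min at 37 °C in buffer containing 1 mM IBMX, 0.25% BSA and 10 uM forskolin. cAMP was measured after lysis. EC50 was taken as 50% inhibition of forskolin-stimulated cAMP, with 100% defined by 1 uM CP55940, using a four-parameter logistic fit.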

Where two headings read alike, the source gives them in different places.

T1 sequence (P34972 whole entry): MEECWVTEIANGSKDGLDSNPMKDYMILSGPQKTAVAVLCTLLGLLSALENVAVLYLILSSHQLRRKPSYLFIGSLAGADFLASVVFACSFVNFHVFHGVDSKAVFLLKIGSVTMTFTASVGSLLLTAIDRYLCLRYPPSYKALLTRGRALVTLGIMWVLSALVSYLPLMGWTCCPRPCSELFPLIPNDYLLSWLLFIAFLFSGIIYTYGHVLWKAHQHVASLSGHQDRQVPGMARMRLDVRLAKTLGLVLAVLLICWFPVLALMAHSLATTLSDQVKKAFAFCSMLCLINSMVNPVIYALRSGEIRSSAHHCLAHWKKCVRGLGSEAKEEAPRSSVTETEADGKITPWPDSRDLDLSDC

Usually EC50 stands for the concentration giving half of the maximal effect. Turning to `CC(C)(C(=O)Nc1nc(C2CCCCC2)cs1)S(=O)(=O)CC1CCOCC1` [N-(4-Cyclohexyl-thiazol-2-yl)-2-methyl-2-(tetrahydro-pyran-4-ylmethanesulfonyl)-propionamide], a half-maximal response (EC50) required 0.0083 µM and the agonistic activity entry is “agonistic activity”. As for `CC(C)(C(=O)Nc1ccc(C(F)(F)F)cc1)S(=O)(=O)CC1CCOCC1` [2-Methyl-2-(tetrahydro-pyran-4-ylmethanesulfonyl)-N-(4-trifluoromethyl-phenyl)-propionamide], the agonistic activity entry was “agonistic activity”. With `CC(C)(C(=O)Nc1ccc(C(F)(F)F)cn1)S(=O)(=O)CC1CCCCO1` (stereo not drawn) [2-Methyl-2-(tetrahydro-pyran-2-ylmethanesulfonyl)-N-(5-trifluoromethyl-pyridin-2-yl)-propionamide], the agonistic activity result was “agonistic activity”. Take `CC(C)C(C(=O)Nc1nc(C(C)(C)C)cs1)S(=O)(=O)C(C)C` (stereo not drawn) [N-(4-tert-Butyl-thiazol-2-yl)-3-methyl-2-(propane-2-sulfonyl)-butyramide]: the agonistic activity entry was “agonistic activity”. The same measure, in the same setting: the same measure for `CC(C)(C)S(=O)(=O)C(C)(C)C(=O)Nc1cc(C(F)(F)F)ccn1` [2-Methyl-2-(2-methyl-propane-2-sulfonyl)-N-(4-trifluoromethyl-pyridin-2-yl)-propionamide]: “agonistic activity”; for `CC(C)(C)c1csc(NC(=O)C(C)(C)S(=O)(=O)CC2CCOCC2)n1` [N-(4-tert-Butyl-thiazol-2-yl)-2-methyl-2-(tetrahydro-pyran-4-ylmethanesulfonyl)-propionamide]: “agonistic activity”. With `CC(C)(C)c1csc(NC(=O)C(C)(C)S(=O)(=O)C2CCOCC2)n1` [N-(4-tert-Butyl-thiazol-2-yl)-2-methyl-2-(tetrahydro-pyran-4-sulfonyl)-propionamide], the agonistic activity result is “agonistic activity”. Besides, where the note is “CHO cells expressing human CB2R, inhibition of forskolin-stimulated cAMP synthesis, compounds having agonist activity, read-out: CB2 EC50”, the EC50 worked out at 0.0124 µM. For `Cc1nc(NC(=O)C(C)(C)S(=O)(=O)CC2CCOCC2)sc1C(C)(C)C` [N-(5-tert-Butyl-4-methyl-thiazol-2-yl)-2-methyl-2-(tetrahydro-pyran-4-ylmethanesulfonyl)-propionamide], the concentration for a half-maximal effect (EC50) was determined as 0.0002 µM and the agonistic activity result is “agonistic activity”. Turning to `CC(C)(C(=O)Nc1cnc2ccccc2c1)S(=O)(=O)CC1CCOCC1` [2-Methyl-N-quinolin-3-yl-2-(tetrahydro-pyran-4-ylmethanesulfonyl)-propionamide], the EC50 turned out to be 0.086 µM and the agonistic activity entry is given as “agonistic activity”.

Turning to `CCC(C)c1cc(NC(=O)C(C)(C)S(=O)(=O)CC2CCOCC2)on1` (stereo not drawn) [N-(3-sec-Butyl-isoxazol-5-yl)-2-methyl-2-(tetrahydro-pyran-4-ylmethanesulfonyl)-propionamide], it took 0.02 µM to reach a half-maximal effect (EC50) and the agonistic activity entry is reported as “agonistic activity”. The like results for `Cn1nc(C(C)(C)C)cc1NC(=O)C(C)(C)S(=O)(=O)CC1CCCCC1` [N-(5-tert-Butyl-2-methyl-2H-pyrazol-3-yl)-2-cyclohexylmethanesulfonyl-2-methyl-propionamide] were, in that order, 0.0238 µM and “agonistic activity”. Take `CC(C)S(=O)(=O)C(C)(C)C(=O)Nc1nc(-c2cccnc2)cs1` [2-Methyl-2-(propane-2-sulfonyl)-N-(4-pyridin-3-yl-thiazol-2-yl)-propionamide]: the agonistic activity result is given as “agonistic activity”. For `CC(C)(C)c1nnc(NC(=O)C(C)(C)S(=O)(=O)C2CCCC2)s1` [N-(5-tert-Butyl-1,3,4-thiadiazol-2-yl)-2-cyclopentanesulfonyl-2-methyl-propionamide], the EC50 worked out at 0.0186 µM and the agonistic activity result is “agonistic activity”. For the compound `Cn1nc(C(C)(C)C)cc1NC(=O)C(C)(C)S(=O)(=O)C[C@H]1CCC(=O)N1` [N-(5-tert-Butyl-2-methyl-2H-pyrazol-3-yl)-2-methyl-2-((R)-5-oxo-pyrrolidin-2-ylmethanesulfonyl)-propionamide], the agonistic activity result is on record as “agonistic activity”. Consider `CCCS(=O)(=O)C(C)(C)C(=O)Nc1cnc2ccccc2c1` [2-Methyl-2-(propane-1-sulfonyl)-N-quinolin-3-yl-propionamide], for which the agonistic activity entry is “agonistic activity”. For the compound `CC(C)(C(=O)Nc1ccc(C(F)(F)F)cn1)S(=O)(=O)CC1CCC1` [2-Cyclobutylmethanesulfonyl-2-methyl-N-(5-trifluoromethyl-pyridin-2-yl)-propionamide], the agonistic activity result is reported as “agonistic activity”.

For `CCCS(=O)(=O)C(C)(C)C(=O)Nc1nc(-c2ccccc2)c(CC)s1` [N-(5-Ethyl-4-phenyl-thiazol-2-yl)-2-methyl-2-(propane-1-sulfonyl)-propionamide], the EC50 is 0.0108 µM and the agonistic activity result is on record as “agonistic activity”. Consider `CCc1sc(NC(=O)C(C)(C)S(=O)(=O)CC2CCOCC2)nc1-c1ccccc1` [N-(5-Ethyl-4-phenyl-thiazol-2-yl)-2-methyl-2-(tetrahydro-pyran-4-ylmethanesulfonyl)-propionamide], for which a half-maximal effect (EC50) was put at 0.002 µM and the agonistic activity entry was “agonistic activity”. In the case of `CC(C)S(=O)(=O)C(C)(C)C(=O)Nc1cc(-c2ccccc2)nn1C` [2-Methyl-N-(2-methyl-5-phenyl-2H-pyrazol-3-yl)-2-(propane-2-sulfonyl)-propionamide], the agonistic activity entry is given as “agonistic activity”. As to `Cc1nc(NC(=O)C(C(C)C)S(=O)(=O)C(C)C)sc1C(C)(C)C` (stereo not drawn) [N-(5-tert-Butyl-4-methyl-thiazol-2-yl)-3-methyl-2-(propane-2-sulfonyl)-butyramide], the agonistic activity entry was “agonistic activity”. The same measure, in the same setting: the same measure for `CC(C)S(=O)(=O)C(C)C(=O)Nc1nc(C(C)(C)C)cs1` (stereo not drawn) [N-(4-tert-Butyl-thiazol-2-yl)-2-(propane-2-sulfonyl)-propionamide]: “agonistic activity”. Turning to `CCCS(=O)(=O)C(C)(C)C(=O)Nc1cc(C(C)(C)C)no1` [N-(3-tert-Butyl-isoxazol-5-yl)-2-methyl-2-(propane-1-sulfonyl)-propionamide], the concentration giving a half-maximal response (EC50) came out at 0.0897 µM and the agonistic activity entry was “agonistic activity”.

Take `CCCS(=O)(=O)C(C)(C)C(=O)Nc1nc(-c2ccc(Cl)cc2)cs1` [N-[4-(4-Chloro-phenyl)-thiazol-2-yl]-2-methyl-2-(propane-1-sulfonyl)-propionamide]: the EC50 is 0.013 µM and the agonistic activity result is “agonistic activity”. On to `CC(C)(C(=O)Nc1cccc(C(F)(F)F)c1)S(=O)(=O)CC1CCOCC1` [2-Methyl-2-(tetrahydro-pyran-4-ylmethanesulfonyl)-N-(3-trifluoromethyl-phenyl)-propionamide], for which the agonistic activity entry is “agonistic activity”.

For the compound `CC(C)(C(=O)Nc1ccc(C(F)(F)F)cn1)S(=O)(=O)CC1CC1` [2-Cyclopropylmethanesulfonyl-2-methyl-N-(5-trifluoromethyl-pyridin-2-yl)-propionamide], the agonistic activity result is listed as “agonistic activity”. On the same count and under the same terms, with `CCC(C)S(=O)(=O)C(C)(C)C(=O)Nc1cc(C(C)(C)C)nn1C` (stereo not drawn) [2-(Butane-2-sulfonyl)-N-(5-tert-butyl-2-methyl-2H-pyrazol-3-yl)-2-methyl-propionamide] the entry was “agonistic activity”. On to `CC(C)CS(=O)(=O)C(C)(C)C(=O)Nc1cc(C(C)(C)C)on1` [N-(5-tert-Butyl-isoxazol-3-yl)-2-methyl-2-(2-methyl-propane-1-sulfonyl)-propionamide], for which the EC50 was 0.0446 µM and the agonistic activity result is “agonistic activity”. `CC(C)(C(=O)Nc1cc(C(F)(F)F)ccn1)S(=O)(=O)C1CCCC1` [2-Cyclopentanesulfonyl-2-methyl-N-(4-trifluoromethyl-pyridin-2-yl)-propionamide]: the agonistic activity entry is on record as “agonistic activity”. In the case of `CCS(=O)(=O)C(C)(C)C(=O)Nc1cc(C(C)(C)C)on1` [N-(5-tert-Butyl-isoxazol-3-yl)-2-ethanesulfonyl-2-methyl-propionamide], the agonistic activity result is given as “agonistic activity”.

Turning to `CCCS(=O)(=O)C(C)(C)C(=O)Nc1nc(C)c(C(C)(C)C)s1` [N-(5-tert-Butyl-4-methyl-thiazol-2-yl)-2-methyl-2-(propane-1-sulfonyl)-propionamide], a half-maximal response (EC50) required 0.0072 µM and the agonistic activity entry is “agonistic activity”. Consider `CC(C)S(=O)(=O)C(C)(C)C(=O)Nc1nc2ccccc2s1` [N-Benzothiazol-2-yl-2-methyl-2-(propane-2-sulfonyl)-propionamide], for which the agonistic activity result was “agonistic activity”. `Cc1nc(NC(=O)C(C)(C)S(=O)(=O)Cc2ccc(Cl)cc2)sc1C(C)(C)C` [N-(5-tert-Butyl-4-methyl-thiazol-2-yl)-2-(4-chloro-phenylmethanesulfonyl)-2-methyl-propionamide]: the EC50 was 0.0121 µM and the agonistic activity entry is given as “agonistic activity”. As for `CC(C)S(=O)(=O)C(C)(C)C(=O)Nc1nc(C(C)(C)C)cs1` [N-(4-tert-Butyl-thiazol-2-yl)-2-methyl-2-(propane-2-sulfonyl)-propionamide], the agonistic activity entry is reported as “agonistic activity”. `CC(C)(C)c1cc(NC(=O)C(C)(C)S(=O)(=O)CC2CCOC2)on1` (stereo not drawn) [N-(3-tert-Butyl-isoxazol-5-yl)-2-methyl-2-(tetrahydro-furan-3-ylmethanesulfonyl)-propionamide]: the EC50 was 0.0185 µM and the agonistic activity entry is listed as “agonistic activity”. Turning to `CC(C)S(=O)(=O)C(C)(C)C(=O)Nc1cc(C(C)(C)C)no1` [N-(3-tert-Butyl-isoxazol-5-yl)-2-methyl-2-(propane-2-sulfonyl)-propionamide], the agonistic activity result is listed as “agonistic activity”. `CCCS(=O)(=O)C(C)(C)C(=O)Nc1nc2c(s1)CCCC2` [2-Methyl-2-(propane-1-sulfonyl)-N-(4,5,6,7-tetrahydro-benzothiazol-2-yl)-propionamide]: the agonistic activity result was “agonistic activity”.

These data come from patent US8829034B2, “Compounds which modulate the CB2 receptor” (Boehringer Ingerlheim International GmbH, priority 2006, dated 2014).
